Key:
Recombinant HDAC1 = Recombinant HDAC1 (Homo sapiens (Human), UniProt Q13547); test: HDAC1 inhibition, Fluor de Lys fluorescent enzyme assay; format: biochemical; conditions: 3 hours pre-incubation at room temp; 6 nM enzyme; 16 μM Fluor de Lys substrate; duplicate
Summary of the method: (§1)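 Enzyme (HDAC1 6 nM, HDAC3/NCor2 1.2 nM final) pre-incubated with compound 3 h at ~22 °C in Tris pH 8 buffer with 0.01% BSA. Reaction run 1 h with 16 μM Fluor de Lys substrate and stopped with TSA-containing developer. Fluorescence read at Ex 360/Em 460; IC50 from an occupancy equation with Hill coefficient, in duplicate.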

HDAC3/NCor2 = HDAC3/NCor2 (Homo sapiens (Human), UniProt O15379); test: HDAC3 inhibition, Fluor de Lys fluorescent enzyme assay; format: biochemical; conditions: 3 hours pre-incubation at room temp; 1.2 nM enzyme; 16 μM Fluor de Lys substrate; duplicate
Chain of HDAC3/NCor2 (O15379 whole entry): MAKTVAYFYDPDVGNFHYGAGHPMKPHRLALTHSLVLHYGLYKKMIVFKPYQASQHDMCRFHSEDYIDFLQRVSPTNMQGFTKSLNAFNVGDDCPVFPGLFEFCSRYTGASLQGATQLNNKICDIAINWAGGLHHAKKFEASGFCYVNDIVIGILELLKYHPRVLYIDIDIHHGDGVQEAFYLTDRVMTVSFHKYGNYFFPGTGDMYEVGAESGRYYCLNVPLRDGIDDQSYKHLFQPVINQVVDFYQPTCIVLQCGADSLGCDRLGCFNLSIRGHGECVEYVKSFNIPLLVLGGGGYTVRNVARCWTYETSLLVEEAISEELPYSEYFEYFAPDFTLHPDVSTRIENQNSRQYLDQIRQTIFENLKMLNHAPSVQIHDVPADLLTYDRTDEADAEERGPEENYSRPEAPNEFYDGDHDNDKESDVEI
Chain of HDAC3/NCor2 (Q9Y618 395-489 partner): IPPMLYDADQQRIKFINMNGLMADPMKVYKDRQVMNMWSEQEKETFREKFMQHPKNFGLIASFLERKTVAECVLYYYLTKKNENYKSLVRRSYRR
Summary of the method: as §1

Chain of Recombinant HDAC1 (Q13547 whole entry): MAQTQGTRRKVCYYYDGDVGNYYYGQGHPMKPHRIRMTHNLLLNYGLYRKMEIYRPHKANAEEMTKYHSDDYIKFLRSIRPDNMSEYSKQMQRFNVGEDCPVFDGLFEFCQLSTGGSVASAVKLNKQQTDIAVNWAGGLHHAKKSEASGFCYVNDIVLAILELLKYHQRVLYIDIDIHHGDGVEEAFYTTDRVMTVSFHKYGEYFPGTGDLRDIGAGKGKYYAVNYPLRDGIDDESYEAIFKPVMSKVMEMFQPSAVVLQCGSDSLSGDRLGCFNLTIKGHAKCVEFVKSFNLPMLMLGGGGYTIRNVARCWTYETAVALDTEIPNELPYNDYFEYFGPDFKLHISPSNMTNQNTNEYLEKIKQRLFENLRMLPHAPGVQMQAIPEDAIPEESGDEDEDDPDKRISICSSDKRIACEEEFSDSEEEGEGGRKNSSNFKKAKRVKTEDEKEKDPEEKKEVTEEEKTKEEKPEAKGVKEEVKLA

In the case of `Cn1cncc1S(=N)(=O)c1ccc(C(=O)Nc2cc(-c3ccc(F)cc3)ccc2N)cc1` (stereo not shown) [Compound 242, N-[2-amino-5-(4-fluorophenyl)phenyl]-4-[(3-methylimidazol-4-yl)sulfonimidoyl]benzamide], the IC50 (Recombinant HDAC1) is reported as < 100 nM and the IC50 (HDAC3/NCor2) is reported as 500 to 2000 nM.
In the case of `Nc1ccc(-c2ccc(F)cc2)cc1NC(=O)c1ccc([S@@]2(=O)=NCCC2)cc1` (stereo in doubt) [Compound 185, N-[2-amino-5-(4-fluorophenyl)phenyl]-4-[rel-(1R)-1-oxo-4,5-dihydro-3H-isothiazol-1-yl]benzamide], the IC50 (Recombinant HDAC1) is reported as < 100 nM and the IC50 (HDAC3/NCor2) is reported as 500 to 2000 nM.
With `N=S(=O)(c1ccc(C(=O)Nc2cc(-c3ccc(F)cc3)ccc2N)cc1)c1cncc(Cl)c1` (stereo not shown) [Compound 245, N-(4-amino-4′-fluoro-[1,1′-biphenyl]-3-yl)-4-(5-chloropyridine-3-sulfonimidoyl)benzamide] the IC50 (Recombinant HDAC1) was < 100 nM and the IC50 (HDAC3/NCor2) was 500 to 2000 nM.
With `CS(=N)(=O)c1ccc(C(=O)Nc2cc(-c3ccncc3)ccc2N)cc1` (stereo not shown) [Compound 108, N-[2-amino-5-(4-pyridyl)phenyl]-4-(methylsulfonimidoyl)benzamide] the IC50 (Recombinant HDAC1) was < 100 nM and the IC50 (HDAC3/NCor2) was > 2000 nM.
For `N=S(=O)(c1ccc(C(=O)Nc2cc(-c3ccc(F)cc3)ccc2N)cc1)c1cnccc1O` (stereo not shown) [Compound 227, N-[2-amino-5-(4-fluorophenyl)phenyl]-4-[(4-hydroxy-3-pyridyl)sulfonimidoyl]benzamide], the IC50 (Recombinant HDAC1) was < 100 nM and the IC50 (HDAC3/NCor2) was 500 to 2000 nM.
With `N=S(=O)(c1ccc(C(=O)Nc2cc(-c3cccs3)ccc2N)cn1)C1CC1` (stereo not shown) [Compound 122, N-[2-amino-5-(2-thienyl)phenyl]-6-(cyclopropylsulfonimidoyl)pyridine-3-carboxamide] the IC50 (Recombinant HDAC1) was < 100 nM and the IC50 (HDAC3/NCor2) was 500 to 2000 nM.
With `N=S(=O)(c1ccc(C(=O)Nc2cc(-c3cccnc3)ccc2N)cc1)C1CC1` (stereo not shown) [Compound 116, N-[2-amino-5-(3-pyridyl)phenyl]-4-(cyclopropylsulfonimidoyl)benzamide] the IC50 (Recombinant HDAC1) was < 100 nM and the IC50 (HDAC3/NCor2) was 500 to 2000 nM.
In the case of `N=S(=O)(c1ccc(C(=O)Nc2cc(-c3ccc(F)cc3)ccc2N)cc1)c1cncc(F)c1` (stereo not shown) [Compound 206, N-(4-amino-4′-fluoro-[1,1′-biphenyl]-3-yl)-4-(5-fluoropyridine-3-sulfonimidoyl)benzamide], the IC50 (Recombinant HDAC1) is reported as < 100 nM and the IC50 (HDAC3/NCor2) is reported as 500 to 2000 nM.
`N=[S@@](=O)(c1ccc(C(=O)Nc2cc(-c3ccc(F)cc3)ccc2N)cc1)c1cncnc1` (single isomer, unassigned) [Compound 181] was tested, and the IC50 (Recombinant HDAC1) was < 100 nM and the IC50 (HDAC3/NCor2) was 500 to 2000 nM.
In the case of `Cc1ncc(S(=N)(=O)c2ccc(C(=O)Nc3cc(-c4ccc(F)cc4)ccc3N)cc2)cn1` (stereo not shown) [Compound 235, N-[2-amino-5-(4-fluorophenyl)phenyl]-4-[(2-methylpyrimidin-5-yl)sulfonimidoyl]benzamide], the IC50 (Recombinant HDAC1) is reported as < 100 nM and the IC50 (HDAC3/NCor2) is reported as 500 to 2000 nM.
For `CS(=N)(=O)c1ccc(C(=O)Nc2cc(-c3ccc(F)cc3)ccc2O)cc1` (stereo not shown) [Compound 130, N-[5-(4-fluorophenyl)-2-hydroxy-phenyl]-4-(methylsulfonimidoyl)benzamide], the IC50 (Recombinant HDAC1) was < 100 nM and the IC50 (HDAC3/NCor2) was 500 to 2000 nM.
For `CS(=N)(=O)c1ccc2sc(C(=O)Nc3cc(-c4ccc(F)cc4)ccc3N)cc2n1` (stereo not shown) [Compound 254, N-[2-amino-5-(4-fluorophenyl)phenyl]-5-(methylsulfonimidoyl)thieno[3,2-b]pyridine-2-carboxamide], the IC50 (Recombinant HDAC1) was < 100 nM and the IC50 (HDAC3/NCor2) was 100 to 500 nM.
`N=S(=O)(c1ccc(F)cc1)c1ccc(C(=O)Nc2cc(-c3ccc(F)cc3)ccc2N)cc1` (stereo not shown) [Compound 214, N-[2-amino-5-(4-fluorophenyl)phenyl]-4-[(4-fluorophenyl)sulfonimidoyl]benzamide] was tested, and the IC50 (Recombinant HDAC1) was < 100 nM and the IC50 (HDAC3/NCor2) was 500 to 2000 nM.
In the case of `N=[S@@](=O)(c1ccc(C(=O)Nc2cc(-c3ccc(F)cc3)ccc2N)cc1)C1CC1` (single isomer, unassigned) [Compound 146], the IC50 (Recombinant HDAC1) is reported as < 100 nM and the IC50 (HDAC3/NCor2) is reported as 500 to 2000 nM.
For `CCN=S(C)(=O)c1ccc(C(=O)Nc2cc(-c3ccc(F)cc3)ccc2N)cc1` (stereo not shown) [Compound 165, N-[2-amino-5-(4-fluorophenyl)phenyl]-4-(N-ethyl-S-methyl-sulfonimidoyl)benzamide], the IC50 (Recombinant HDAC1) was < 100 nM and the IC50 (HDAC3/NCor2) was 500 to 2000 nM.
`N=S(=O)(c1ccccc1)c1ccc(C(=O)Nc2cc(-c3cccs3)ccc2N)cc1` (stereo not shown) [Compound 102, N-[2-amino-5-(2-thienyl)phenyl]-4-(phenylsulfonimidoyl)benzamide] was tested, and the IC50 (Recombinant HDAC1) was < 100 nM and the IC50 (HDAC3/NCor2) was 500 to 2000 nM.
`CC(=O)c1ccc(-c2ccc(N)c(NC(=O)c3ccc(S(C)(=N)=O)cc3)c2)s1` (stereo not shown) [Compound 241, N-[5-(5-acetyl-2-thienyl)-2-amino-phenyl]-4-(methylsulfonimidoyl)benzamide] was tested, and the IC50 (Recombinant HDAC1) was > 2000 nM and the IC50 (HDAC3/NCor2) was > 2000 nM.
With `CS(=N)(=O)c1ccc(C(=O)Nc2cc(-c3ccc(C(N)=O)s3)ccc2N)cc1` (stereo not shown) [Compound 176, 5-[4-amino-3-[[4-(methylsulfonimidoyl)benzoyl]amino]phenyl]thiophene-2-carboxamide] the IC50 (Recombinant HDAC1) was > 2000 nM and the IC50 (HDAC3/NCor2) was > 2000 nM.
`N=S(=O)(c1ccc(C(=O)Nc2cc(-c3ccc(F)cc3)ccc2N)cc1)c1ncc[nH]1` (stereo not shown) [Compound 257, N-[2-amino-5-(4-fluorophenyl)phenyl]-4-(1H-imidazol-2-ylsulfonimidoyl)benzamide] was tested, and the IC50 (Recombinant HDAC1) was < 100 nM and the IC50 (HDAC3/NCor2) was 100 to 500 nM.
In the case of `CS(=O)(=NC1CC1)c1ccc2oc(C(=O)Nc3cc(-c4ccc(F)cc4)ccc3N)cc2c1` (stereo not shown) [Compound 230, N-[2-amino-5-(4-fluorophenyl)phenyl]-5-(N-cyclopropyl-S-methyl-sulfonimidoyl)benzofuran-2-carboxamide], the IC50 (Recombinant HDAC1) is reported as < 100 nM and the IC50 (HDAC3/NCor2) is reported as 500 to 2000 nM.
`CS(=N)(=O)c1ccc2oc(C(=O)Nc3cc(-c4ccc(F)cc4)ccc3N)cc2n1` (stereo not shown) [Compound 189, N-[2-amino-5-(4-fluorophenyl)phenyl]-5-(methylsulfonimidoyl)furo[3,2-b]pyridine-2-carboxamide] was tested, and the IC50 (Recombinant HDAC1) was < 100 nM and the IC50 (HDAC3/NCor2) was 500 to 2000 nM.
For `N=S(=O)(c1ccc(C(=O)Nc2cc(-c3ccc(F)cc3)ccc2N)cn1)C1CC1` (stereo not shown) [Compound 179, N-[2-amino-5-(4-fluorophenyl)phenyl]-6-(cyclopropylsulfonimidoyl)pyridine-3-carboxamide], the IC50 (Recombinant HDAC1) was < 100 nM and the IC50 (HDAC3/NCor2) was 500 to 2000 nM.
For `CS(=N)(=O)c1ccc(C(=O)Nc2cc(-c3ccc(F)cc3)ccc2N)nn1` (stereo not shown) [Compound 159, N-[2-amino-5-(4-fluorophenyl)phenyl]-6-(methylsulfonimidoyl)pyridazine-3-carboxamide], the IC50 (Recombinant HDAC1) was < 100 nM and the IC50 (HDAC3/NCor2) was 100 to 500 nM.
With `N=[S@](=O)(c1ccc(C(=O)Nc2cc(-c3ccc(F)cc3)ccc2N)cc1)c1ccccn1` (single isomer, unassigned) [Compound 220] the IC50 (Recombinant HDAC1) was < 100 nM and the IC50 (HDAC3/NCor2) was 500 to 2000 nM.
`COc1ccncc1S(=N)(=O)c1ccc(C(=O)Nc2cc(-c3ccc(F)cc3)ccc2N)cc1` (stereo not shown) [Compound 240, N-[2-amino-5-(4-fluorophenyl)phenyl]-4-[(4-methoxy-3-pyridyl)sulfonimidoyl]benzamide] was tested, and the IC50 (Recombinant HDAC1) was < 100 nM and the IC50 (HDAC3/NCor2) was 500 to 2000 nM.
For `N=S(=O)(c1ccc(C(=O)Nc2cc(-c3cccs3)ccc2N)cc1)C1CC1` (stereo not shown) [Compound 103, N-[2-amino-5-(2-thienyl)phenyl]-4-(cyclopropylsulfonimidoyl)benzamide], the IC50 (Recombinant HDAC1) was < 100 nM and the IC50 (HDAC3/NCor2) was 500 to 2000 nM.
With `Cc1ncc(-c2ccc(N)c(NC(=O)c3ccc(S(C)(=N)=O)cc3)c2)s1` (stereo not shown) [Compound 156, N-[2-amino-5-(2-methylthiazol-5-yl)phenyl]-4-(methylsulfonimidoyl)benzamide] the IC50 (Recombinant HDAC1) was 100 to 500 nM and the IC50 (HDAC3/NCor2) was > 2000 nM.
With `N=S(=O)(c1ccc(C(=O)Nc2cc(-c3ccc(F)cc3)ccc2N)cc1)c1ccc(=O)[nH]c1` (stereo not shown) [Compound 192, N-[2-amino-5-(4-fluorophenyl)phenyl]-4-[(6-oxo-1H-pyridin-3-yl)sulfonimidoyl]benzamide] the IC50 (Recombinant HDAC1) was < 100 nM and the IC50 (HDAC3/NCor2) was 500 to 2000 nM.
In the case of `CS(=N)(=O)c1ccc(C(=O)Nc2cc(-c3cccs3)ccc2N)nn1` (stereo not shown) [Compound 124, N-[2-amino-5-(2-thienyl)phenyl]-6-(methylsulfonimidoyl)pyridazine-3-carboxamide], the IC50 (Recombinant HDAC1) is reported as < 100 nM and the IC50 (HDAC3/NCor2) is reported as 100 to 500 nM.
`Cc1ncccc1S(=N)(=O)c1ccc(C(=O)Nc2cc(-c3ccc(F)cc3)ccc2N)cc1` (stereo not shown) [Compound 190, N-[2-amino-5-(4-fluorophenyl)phenyl]-4-[(2-methyl-3-pyridyl)sulfonimidoyl]benzamide] was tested, and the IC50 (Recombinant HDAC1) was < 100 nM and the IC50 (HDAC3/NCor2) was 500 to 2000 nM.
`Cc1ccc(S(=N)(=O)c2ccc(C(=O)Nc3cc(-c4ccc(F)cc4)ccc3N)cc2)cn1` (stereo not shown) [Compound 233, N-[2-amino-5-(4-fluorophenyl)phenyl]-4-[(6-methyl-3-pyridyl)sulfonimidoyl]benzamide] was tested, and the IC50 (Recombinant HDAC1) was < 100 nM and the IC50 (HDAC3/NCor2) was 500 to 2000 nM.
`C[S@](=N)(=O)c1ccc(C(=O)Nc2cc(-c3ccc(F)cc3)ccc2N)cc1` [Compound 134, (S)—N-[2-amino-5-(4-fluorophenyl)phenyl]-4-(methylsulfonimidoyl)benzamide] was tested, and the IC50 (Recombinant HDAC1) was < 100 nM and the IC50 (HDAC3/NCor2) was 500 to 2000 nM.
In the case of `N=S(=O)(c1ccc(C(=O)Nc2cc(-c3ccc(F)cc3)ccc2N)cc1)c1cccnc1` (stereo not shown) [Compound 172, N-[2-amino-5-(4-fluorophenyl)phenyl]-4-(3-pyridylsulfonimidoyl)benzamide], the IC50 (Recombinant HDAC1) is reported as < 100 nM and the IC50 (HDAC3/NCor2) is reported as 500 to 2000 nM.
For `N=S(=O)(c1ccc(C(=O)Nc2cc(-c3ccc(F)cc3)ccc2N)cc1)C(F)(F)F` (stereo not shown) [Compound 177, N-[2-amino-5-(4-fluorophenyl)phenyl]-4-(trifluoromethylsulfonimidoyl)benzamide], the IC50 (Recombinant HDAC1) was < 100 nM and the IC50 (HDAC3/NCor2) was 500 to 2000 nM.
In the case of `N=S(=O)(c1ccc(C(=O)Nc2cc(-c3ccc(F)cc3)ccc2N)cc1)c1cnc(O)nc1` (stereo not shown) [Compound 234, N-[2-amino-5-(4-fluorophenyl)phenyl]-4-[(2-hydroxypyrimidin-5-yl)sulfonimidoyl]benzamide], the IC50 (Recombinant HDAC1) is reported as < 100 nM and the IC50 (HDAC3/NCor2) is reported as > 2000 nM.
